# Experimental data reported in patent US20260042755A1, “GPR6 INVERSE AGONISTS” (MapLight Therapeutics, Inc., priority 2022, published 2026).
# Key:
# GPR3 = molecular target: T1, GPR3 (Homo sapiens, UniProt P46089); experiment: GPR3 antagonist functional cAMP assay (LANCE Ultra cAMP TR-FRET, CHO cells stably expressing GPR3); format: cell-based
# T1 construct: expressed in transfected cells; host or cells: CHO cells
# Procedure, shortened: (§1)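 We measure cAMP by TR-FRET (665 nm) in cells held in glucose-containing Krebs-Ringer buffer with BSA and a PDE inhibitor, after a 45 min, 37 °C compound incubation. IC50s derive from a four-parameter logistic fit.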
# GPR6 = molecular target: T2, GPR6 (Homo sapiens, UniProt P46095); experiment: GPR6 antagonist functional cAMP assay (LANCE Ultra cAMP TR-FRET, CHO cells stably expressing GPR6); format: cell-based
# T2 construct: expressed in transfected cells; host or cells: CHO cells
# Procedure, shortened: as §1
# [1] = CHO cells stably expressing GPR3, cAMP assay
# [2] = CHO cells stably expressing GPR6, cAMP assay
# [3] = CHO cells stably expressing GPR3, cAMP assay (Example 24)
# [4] = CHO cells stably expressing GPR6, cAMP assay (Example 24)
# T1 sequence (P46089 whole entry, species assumed): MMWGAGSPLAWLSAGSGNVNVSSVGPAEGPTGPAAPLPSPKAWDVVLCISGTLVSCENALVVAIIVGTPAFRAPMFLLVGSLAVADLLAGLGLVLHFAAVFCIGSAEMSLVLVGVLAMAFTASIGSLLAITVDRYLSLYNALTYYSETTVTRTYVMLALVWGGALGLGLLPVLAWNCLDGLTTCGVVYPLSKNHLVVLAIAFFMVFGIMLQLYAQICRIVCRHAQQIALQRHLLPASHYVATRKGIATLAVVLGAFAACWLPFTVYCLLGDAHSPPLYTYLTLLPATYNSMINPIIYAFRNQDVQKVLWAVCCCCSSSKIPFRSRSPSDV
# T2 sequence (P46095 whole entry): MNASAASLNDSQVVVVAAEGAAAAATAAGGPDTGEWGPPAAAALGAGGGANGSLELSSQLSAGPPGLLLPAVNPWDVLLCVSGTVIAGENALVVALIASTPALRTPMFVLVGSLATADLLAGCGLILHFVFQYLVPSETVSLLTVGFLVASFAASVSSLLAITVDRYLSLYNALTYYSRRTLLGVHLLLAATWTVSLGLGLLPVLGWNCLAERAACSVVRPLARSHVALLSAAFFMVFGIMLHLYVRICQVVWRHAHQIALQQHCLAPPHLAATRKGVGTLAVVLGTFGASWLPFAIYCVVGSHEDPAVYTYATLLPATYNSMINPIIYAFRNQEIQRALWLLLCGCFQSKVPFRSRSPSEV
Structure (SMILES),IC50 (GPR3; procedure of Example 24) [nM],IC50 (GPR6; procedure of Example 24) [nM],IC50 (GPR3; [3]) [nM],IC50 (GPR6; [4]) [nM],also measured
"CC(C)(O)[C@](C)(O)c1cc2nc(N3CCC(Oc4ccc(F)cc4F)CC3)c(-c3cnn(C(F)F)c3)nc2cn1 (single isomer, unassigned) [Compound 655]",1000 to 30000,100 to 1000,,,
"CCn1cc(-c2nc3c(nc2N2CCC(Oc4ccc(F)cc4F)CC2)CCN(C(=O)C2COCCN2)C3)cn1 (centres unmarked) [Compound 491, 3-{2-[4-(2,4-difluorophenoxy)piperidin-1-yl]-3-(1-ethyl-1H-pyrazol-4-yl)-5H,6H,7H,8H-pyrido[3,4-b]pyrazine-6-carbonyl}morpholine]",,,,,IC50 (GPR3; [1]): 1000 to 30000 nM; IC50 (GPR6; [2]): < 100 nM
"COC[C@H](O)c1cc2nc(N3CCC(Oc4ccc(F)cc4F)CC3)c(-c3cnn(C)c3)nc2cn1 (single isomer, unassigned) [Compound 643]",1000 to 30000,< 100,,,
"COC(=O)c1cc2nc(N3CCC(Oc4ccc(F)cc4F)CC3)c(-c3cnn(C)c3)nc2cn1 [Compound 251, methyl 2-[4-(2,4-difluorophenoxy)piperidin-1-yl]-3-(1-methyl-1H-pyrazol-4-yl)pyrido[3,4-b]pyrazine-7-carboxylate]",,,1000 to 30000,1000 to 30000,
"Fc1ccc(OC2CCN(c3nc4ccncc4nc3-c3ccn[nH]3)CC2)c(F)c1 [Compound 85, 4-(2,4-difluorophenoxy)-1-[3-(1H-pyrazol-5-yl)pyrido[3,4-b]pyrazin-2-yl]piperidine]",,,1000 to 30000,1000 to 30000,
"COCC1(Oc2ccc(F)cc2F)CCN(c2nc3ccncc3nc2-c2cn[nH]c2)CC1 [Compound 63, 2-(4-(2,4-difluorophenoxy)-4-(methoxymethyl)piperidin-1-yl)-3-(1H-pyrazol-4-yl)pyrido[3,4-b]pyrazine]",,,100 to 1000,1000 to 30000,
"Cn1cc(-c2nc3cc([C@](C)(O)C(C)(C)O)ncc3nc2N2CCN(Cc3ccc(F)cc3F)CC2)cn1 (single isomer, unassigned) [Compound 773]",100 to 1000,100 to 1000,,,
"CC(=O)N1CCc2nc(N3CCN(Cc4cc(Cl)c(F)cc4F)CC3)c(-c3cnn(C)c3)nc2C1 [Compound 360, 1-(2-{4-[(5-chloro-2,4-difluorophenyl)methyl]piperazin-1-yl}-3-(1-methyl-1H-pyrazol-4-yl)-5H,6H,7H,8H-pyrido[3,4-b]pyrazin-6-yl)ethan-1-one]",1000 to 30000,100 to 1000,,,
"CC(=O)N1CCc2nc(N3CCC(Oc4c(F)cc(F)cc4F)CC3)c(-c3cnn(C)c3)nc2C1 [Compound 428, 1-[3-(1-methyl-1H-pyrazol-4-yl)-2-[4-(2,4,6-trifluorophenoxy)piperidin-1-yl]-5H,6H,7H,8H-pyrido[3,4-b]pyrazin-6-yl]ethan-1-one]",,,1000 to 30000,100 to 1000,
"COc1ccccc1CN1CCN(c2nc3c(nc2-c2cnn(C)c2)CN(C(C)=O)CC3)CC1 [Compound 509, 1-(2-{4-[(o-methoxyphenyl)methyl]-1-piperazinyl}-3-(1-methyl-4-pyrazolyl)-5,6,7,8-tetrahydro-1,4,6-triaza-6-naphthyl)-1-ethanone]",,,,,IC50 (GPR3; [1]): 1000 to 30000 nM; IC50 (GPR6; [2]): ≥ 30000 nM
"CC(C)(O)C(O)c1ncc2nc(-c3cnn(CF)c3)c(N3CCN(Cc4ccc(F)cc4F)CC3)nc2c1F (racemic) [Compound 797, 1-(2-{4-[(2,4-difluorophenyl)methyl]-1-piperazinyl}-8-fluoro-3-[1-(fluoromethyl)-4-pyrazolyl]-1,4,6-triaza-7-naphthyl)-2-methyl-1,2-propanediol]",1000 to 30000,100 to 1000,,,
"CC(C)(O)Cc1cc2nc(-c3cnn(CF)c3)c(N3CCC(Oc4ccc(F)cc4F)CC3)nc2cn1 [Compound 717, 1-{3-[4-(2,4-difluorophenoxy)-1-piperidyl]-2-[1-(fluoromethyl)-4-pyrazolyl]-1,4,6-triaza-7-naphthyl}-2-methyl-2-propanol]",1000 to 30000,100 to 1000,,,
"CS(=O)(=O)N1CCc2nc(N3CCC(Oc4ccc(F)cc4F)CC3)c(-c3cn[nH]c3)nc2C1 [Compound 70, 2-(4-(2,4-difluorophenoxy)piperidin-1-yl)-6-(methylsulfonyl)-3-(1H-pyrazol-4-yl)-5,6,7,8-tetrahydropyrido[3,4-b]pyrazine]",,,1000 to 30000,100 to 1000,
"CC(C)(O)Cc1cc2nc(-c3cnn(C(F)F)c3)c(N3CCC(Oc4ccc(F)cc4F)CC3)nc2cn1 [Compound 714, 1-{2-[1-(difluoromethyl)-4-pyrazolyl]-3-[4-(2,4-difluorophenoxy)-1-piperidyl]-1,4,6-triaza-7-naphthyl}-2-methyl-2-propanol]",1000 to 30000,100 to 1000,,,
"Cn1cc(-c2nc3c(nc2N2CCC(Oc4ccc(F)cc4F)CC2)CC2COC(=O)N2C3)cn1 (centres unmarked) [Compound 486, 2-(4-(2,4-difluorophenoxy)piperidin-1-yl)-3-(1-methyl-1H-pyrazol-4-yl)-9a,10-dihydro-5H-oxazolo[3′,4′:1,6]pyrido[3,4-b]pyrazin-7(9H)-one]",,,1000 to 30000,100 to 1000,

# Second part, led by results:
IC50 (GPR3; procedure of Example 24) [nM],IC50 (GPR6; procedure of Example 24) [nM],IC50 (GPR3; [3]) [nM],IC50 (GPR6; [4]) [nM],Structure (SMILES),also measured
,,1000 to 30000,100 to 1000,"CCn1cc(-c2nc3c(nc2N2CCC(Oc4ccc(F)cc4F)CC2)CCN(S(C)(=N)=O)C3)cn1 (centres unmarked) [Compound 485, 2-(4-(2,4-difluorophenoxy)piperidin-1-yl)-3-(1-ethyl-1H-pyrazol-4-yl)-6-(S-methylsulfonimidoyl)-5,6,7,8-tetrahydropyrido[3,4-b]pyrazine]",
,,1000 to 30000,1000 to 30000,"CC(=O)N1CCc2nc(N3CCC(Oc4ccc(F)cc4F)CC3)c(C3CCCOC3)nc2C1 (centres unmarked) [Compound 237, 1-{2-[4-(2,4-difluorophenoxy)piperidin-1-yl]-3-(oxan-3-yl)-5H,6H,7H,8H-pyrido[3,4-b]pyrazin-6-yl}ethan-1-one]",
100 to 1000,< 100,,,"CCn1cc(-c2nc3c(nc2N2CCC(Oc4ccc(F)cc4F)CC2)CCN(C(=O)C(C)(C)O)C3)cn1 [Compound 276, 1-{2-[4-(2,4-difluorophenoxy)piperidin-1-yl]-3-(1-ethyl-1H-pyrazol-4-yl)-5H,6H,7H,8H-pyrido [3,4-b]pyrazin-6-yl}-2-hydroxy-2-methylpropan-1-one]",
,,1000 to 30000,1000 to 30000,"CC(=O)N1CCc2nc(N3CCC(Oc4ccc(F)cc4F)CC3)c(-c3cnn4c3CNCC4)nc2C1 [Compound 108, 1-{2-[4-(2,4-difluorophenoxy)piperidin-1-yl]-3-{4H,5H,6H,7H-pyrazolo[1,5-a]pyrazin-3-yl}-5H,6H,7H,8H-pyrido[3,4-b]pyrazin-6-yl}ethan-1-one]",
,,1000 to 30000,100 to 1000,"CC(=O)N1CCc2nc(N3CCC(Oc4ccc(F)cc4F)CC3)c(-c3cn[nH]c3F)nc2C1 [Compound 135, 1-(2-(4-(2,4-difluorophenoxy)piperidin-1-yl)-3-(5-fluoro-1H-pyrazol-4-yl)-7,8-dihydropyrido[3,4-b]pyrazin-6(5H)-yl)ethanone]",
1000 to 30000,< 100,,,"CCOC(=O)N1CCc2nc(N3CCC(Oc4ccc(F)cc4F)CC3)c(-c3cnn(CC)c3)nc2C1 [Compound 299, ethyl 2-[4-(2,4-difluorophenoxy)piperidin-1-yl]-3-(1-ethyl-1H-pyrazol-4-yl)-5H,6H,7H,8H-pyrido[3,4-b]pyrazine-6-carboxylate]",
,,1000 to 30000,< 100,"[2H]C([2H])([2H])C([2H])([2H])n1cc(-c2nc3c(nc2N2CCC(Oc4ccc(F)cc4F)CC2)CCN(C(C)=O)C3)cn1 [Compound 406, 1-{2-[4-(2,4-difluorophenoxy)piperidin-1-yl]-3-{1-[(1,1,2,2,2-2H5)ethyl]-1H-pyrazol-4-yl}-5H,6H,7H,8H-pyrido[3,4-b]pyrazin-6-yl}ethan-1-one]",
